Assay results as given in patent publication US9539260B2, “Dihydro-benzo-oxazine and dihydro-pyrido-oxazine derivatives” (Novartis AG, priority 2012, dated 2017).

Tests used:
[1] = biological target: PI3K delta (Homo sapiens (Human), UniProt O00329); test: Enzymatic PI3K delta isoform inhibition (lipid kinase activity, Kinase-Glo luminescence); type: biochemical; conditions: Enzymatic assay
In short: (§1)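 IC50s derive from 4-parameter logistic fits of % inhibition across 8 concentrations (usually 10 to 0.003 μM). Lipid kinase reaction: PI3K (10 nM) plus phosphatidylinositol (5 μg/mL) started with 2 μM ATP, stopped near 50% ATP depletion; leftover ATP quantified by Kinase-Glo luminescence.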

[2] = system: rat B cells derived from whole blood; test: Determination of rat B cell activation in whole blood (CD86 upregulation after anti-IgM and rIL-4); type: cell-based; conditions: anti-IgM + rIL-4 stimulation, CD86 on CD45RA+ B cells, read-out: RWB/IC50 CD86
Protocol: 2.3 Determination of Rat B Cell Activation
PI3Kδ has been recognized to modulate B cell function when cells are stimulated through the B cell receptor (BCR) (Okkenhaug et al. Science 297:1031 (2002). For assessing the inhibitory property of compounds on B cell activation, the upregulation of activation markers CD86 on rat B cells derived from whole blood is measured after stimulation with anti-IgM and recombinant IL-4. The CD86 molecule (also known as B7-2) is primarily expressed on antigen-presenting cells, including B cells. Resting B cells express CD86 at low levels, but upregulate it following stimulation of e.g. the BCR or IL-4 receptor. CD86 on a B cell interacts with CD28 on T cells. This interaction is required for optimal T cell activation and for the generation of an optimal IgG1 response (Carreno et al. Annu Rev Immunol. 20:29 (2002)).
Whole blood was collected from the abdominal aorta adult male Lewis rats (LEW/HanHsd) oby using a 10 ml syringe with hypodermic needle pre-coated with sodium heparin. Blood was transferred into 50 ml Falcon tubes and the anticoagulant concentration was adjusted to 100 U/ml.
For assessment of the in vitro effects of immunosuppressive drugs, heparinized blood was prediluted to 50% with medium. As medium served DMEM high glucose (Animed cat#1-26F01-I) supplemented with 100 U/ml penicillin, […], 2 mM L-glutamin, 50 mg/ml dextran 40 and 5% fetal calf serum (FCS, Fetaclone I, Gibco #10270-106). Then, 190 μl prediluted blood was spiked with 10 μl of pre-diluted test compound in 96 well U-bottomed microtiter plates (Nunc) resulting in a 3-fold serial dilution with a concentration range from 20 to 0.0003 μM. Control wells were pretreated with DMSO to obtain a final concentration of 0.5% DMSO. Cultures were set up in duplicates, mixed well by agitation on a plate shaker (Heidolph Titramax 101; 30 sec, speed 900), pipetting up and down and agitated on the plate shaker again. Cultures were incubated at 37° C., 5% CO2 for 1 hr. Then, 20 μl of polyclonal goat anti-rat IgM Ab (Serotec, cat#302001) and 10 μl of diluted recombinant rIL-4 (Immunotools #340085) were added to obtain final concentrations of 30 μg/ml and 5 ng/ml, respectively. Plates were mixed by agitation on a plate shaker as above and incubated for 24 hrs at 37° C., 5% CO2.
After incubation, 15 μl of a 25 mM EDTA solution was added per well and shaken for 15 min to detach adherent cells. For analysis of surface activation markers, samples were then stained with PE-Cy5-labeled anti-ratCD45RA (BD cat#557015) to allow gating on B cells in FACS analysis. In addition, samples were stained with PE-labeled anti-rat CD86 (BD cat#551396). All staining procedures were performed at rt for 30 min in the dark. After incubation, samples were transferred to 96-deep well V-bottomed microtiter plates (Corning #396096) containing 2 ml/well of BD Lysing Solution (BD #349202). After lysis of erythrocytes samples were washed with 2 ml of CellWASH (BD #349524). Data was acquired on an LSRII or FACScalibur flow cytometer (BD Biosciences) using Cellquest Plus or DIVA (version 6.1.1) software, respectively. Lymphocytes were gated in the FSC/SSC dot blot according to size and granularity and further analyzed for expression of CD45RA and activation markers. Data were calculated from dot blots or histograms as percentage of cells positively stained for activation markers within the CD45RA+ population.
The percentage inhibition of B cell activation after exposure to drug was calculated by the following formula: […]
ORIGIN 7 software (OriginLab Corporation, Northampton, Mass.) was used for non-linear regression curve fitting.

[3] = biological target: PI3K alpha (Homo sapiens (Human), UniProt P42336); test: Enzymatic PI3K alpha isoform inhibition (lipid kinase activity, Kinase-Glo luminescence); type: biochemical; conditions: Enzymatic assay
In short: as §1

[4] = biological target: myristoylated catalytic subunit of human PI3K delta in Rat-1 cells (Homo sapiens (Human), UniProt O00329); test: PI3K-mediated Akt 1/2 (S473) phosphorylation in Rat-1 cells, PI3K delta; type: cell-based; conditions: Rat-1 cells overexpressing myristoylated human PI3K delta; p-Akt (S473) AlphaScreen SureFire; read-out: Cell PI3Kδ/ IC50
Protocol: 2.1 Phosphoinositide-3 Kinase (PI3K)-Mediated Akt 1/2 (S473) Phosphorylation in Rat-1 Cells
Rat-1 cells stably overexpressing a myristoylated form of the catalytic subunit of human phosphoinositide-3 kinase (PI3K) alpha, beta or delta were plated in 384-well plates at a density of 7500 (PI3K alpha), 6200 (PI3K beta), or 4000 (PI3K delta) cells in 30 ul complete growth medium (Dulbecco's modified Eagle's medium (DMEM high glucose) supplemented with 10% (v/v) fetal bovine serum, 1% (v/v) MEM non essential amino acids, 10 mM HEPES, 2 mM L-glutamine, 10 μg/mL puromycin and 1% (v/v) Penicillin/Streptomycin) and were incubated at […]/5% CO2/95% humidity for 24 h. Compounds were diluted in 384-well compound plates to obtain 8-point serial dilutions for 40 test compounds in 90% DMSO, as well as 4 reference compounds plus 16 high controls and 16 low (inhibited) controls. Predilution plates were prepared by dispensing pipetting 250 nl of compound solutions into 384-well polypropylen plates using a Hummingwell nanoliter dispensor. Compounds were prediluted by the addition of 49.75 ul complete growth medium. 10 ul of prediluted compound solution were transferred to the cell plate using a 384-well pipettor, resulting in a final DMSO concentration of 0.11%.
Cells were incubated for 1 h at […]/5% CO2/95% humidity. The supernatant was removed, the cells were lysed in 20 ul of lysis buffer for AlphaScreen® SureFire® detection.
For detection of p-AKT(Ser473), the SureFire® p-Akt 1/2 (Ser473) Assay Kit (PerkinElmer, U.S.A) was used. 5 ul of cell lysate was transferred to 384-well low volume Proxiplates for detection using a 384-well pipettor. Addition of AlphaScreen® SureFire® reagents was done according to the manufacturer's protocol. First, 5 ul of reaction buffer plus activation buffer mix containing AlphaScreen® acceptor beads was added, the plate was sealed, and incubated on a plate shaker for 2 hours at room temperature. Second, 2 ul of dilution buffer containing AlphaScreen® donor beads was added, and the plate was incubated on plate shaker as above for a further 2 hours. The plate was read on an AlphaScreen® compatible plate reader, using standard AlphaScreen® settings.

Sequence of myristoylated catalytic subunit of human PI3K delta in Rat-1 cells (O00329 whole entry): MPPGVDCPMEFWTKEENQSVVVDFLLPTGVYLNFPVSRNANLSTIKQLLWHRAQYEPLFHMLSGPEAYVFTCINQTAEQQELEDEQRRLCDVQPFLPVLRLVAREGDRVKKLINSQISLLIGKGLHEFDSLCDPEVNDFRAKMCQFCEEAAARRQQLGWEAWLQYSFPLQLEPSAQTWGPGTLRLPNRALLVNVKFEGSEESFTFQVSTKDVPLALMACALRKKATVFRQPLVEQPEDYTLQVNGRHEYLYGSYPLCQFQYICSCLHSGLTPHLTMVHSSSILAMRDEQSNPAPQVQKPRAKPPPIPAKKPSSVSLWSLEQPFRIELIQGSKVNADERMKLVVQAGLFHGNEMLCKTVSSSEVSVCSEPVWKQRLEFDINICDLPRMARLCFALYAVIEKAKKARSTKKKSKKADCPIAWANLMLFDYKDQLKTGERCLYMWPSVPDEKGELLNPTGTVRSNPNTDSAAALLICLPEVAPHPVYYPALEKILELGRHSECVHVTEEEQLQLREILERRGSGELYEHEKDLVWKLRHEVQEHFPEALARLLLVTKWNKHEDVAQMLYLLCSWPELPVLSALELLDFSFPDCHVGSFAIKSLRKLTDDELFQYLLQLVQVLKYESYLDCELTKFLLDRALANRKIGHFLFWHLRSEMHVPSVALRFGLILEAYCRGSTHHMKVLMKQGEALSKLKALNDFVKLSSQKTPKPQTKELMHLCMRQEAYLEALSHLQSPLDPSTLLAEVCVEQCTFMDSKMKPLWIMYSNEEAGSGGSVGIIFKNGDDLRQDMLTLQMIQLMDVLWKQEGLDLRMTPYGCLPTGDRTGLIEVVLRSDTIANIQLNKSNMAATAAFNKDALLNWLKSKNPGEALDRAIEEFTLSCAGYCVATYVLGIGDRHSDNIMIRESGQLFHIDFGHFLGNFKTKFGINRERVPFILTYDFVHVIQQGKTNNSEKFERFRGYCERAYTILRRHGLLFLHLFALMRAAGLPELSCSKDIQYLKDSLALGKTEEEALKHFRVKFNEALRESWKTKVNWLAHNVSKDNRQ
Sequence of PI3K delta (O00329 other isoform, or with tags, fused parts or gaps linker GGGGGG): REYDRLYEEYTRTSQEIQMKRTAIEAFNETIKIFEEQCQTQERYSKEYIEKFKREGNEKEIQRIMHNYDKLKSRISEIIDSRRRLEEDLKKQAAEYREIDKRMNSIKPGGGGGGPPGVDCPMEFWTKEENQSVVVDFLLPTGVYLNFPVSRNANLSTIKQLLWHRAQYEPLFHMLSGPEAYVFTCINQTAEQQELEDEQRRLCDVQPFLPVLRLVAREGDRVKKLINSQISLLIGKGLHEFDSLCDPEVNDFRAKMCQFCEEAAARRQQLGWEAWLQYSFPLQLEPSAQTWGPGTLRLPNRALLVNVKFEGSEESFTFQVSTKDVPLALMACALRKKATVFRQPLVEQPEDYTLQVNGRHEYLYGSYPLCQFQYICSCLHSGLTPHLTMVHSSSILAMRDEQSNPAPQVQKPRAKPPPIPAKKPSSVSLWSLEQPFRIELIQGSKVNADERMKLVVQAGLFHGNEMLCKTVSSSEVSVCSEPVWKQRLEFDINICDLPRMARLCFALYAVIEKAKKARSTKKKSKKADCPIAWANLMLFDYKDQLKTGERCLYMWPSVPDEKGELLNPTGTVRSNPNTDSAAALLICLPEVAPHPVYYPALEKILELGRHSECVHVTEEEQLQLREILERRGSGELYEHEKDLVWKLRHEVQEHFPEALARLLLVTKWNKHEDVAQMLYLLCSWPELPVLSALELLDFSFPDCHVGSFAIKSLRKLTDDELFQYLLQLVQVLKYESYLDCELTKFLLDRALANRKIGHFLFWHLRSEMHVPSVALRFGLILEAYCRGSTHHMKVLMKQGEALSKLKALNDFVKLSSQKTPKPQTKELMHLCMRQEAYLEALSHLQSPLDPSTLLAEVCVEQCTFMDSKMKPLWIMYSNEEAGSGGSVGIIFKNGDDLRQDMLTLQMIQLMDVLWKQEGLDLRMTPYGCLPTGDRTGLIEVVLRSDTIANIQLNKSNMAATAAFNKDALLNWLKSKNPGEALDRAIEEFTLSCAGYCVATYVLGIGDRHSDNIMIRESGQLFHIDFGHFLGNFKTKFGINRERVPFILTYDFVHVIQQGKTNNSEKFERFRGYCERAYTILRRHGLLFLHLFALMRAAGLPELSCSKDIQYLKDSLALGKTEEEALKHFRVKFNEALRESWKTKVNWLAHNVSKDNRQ
Sequence of PI3K alpha (P42336 other isoform, or with tags, fused parts or gaps): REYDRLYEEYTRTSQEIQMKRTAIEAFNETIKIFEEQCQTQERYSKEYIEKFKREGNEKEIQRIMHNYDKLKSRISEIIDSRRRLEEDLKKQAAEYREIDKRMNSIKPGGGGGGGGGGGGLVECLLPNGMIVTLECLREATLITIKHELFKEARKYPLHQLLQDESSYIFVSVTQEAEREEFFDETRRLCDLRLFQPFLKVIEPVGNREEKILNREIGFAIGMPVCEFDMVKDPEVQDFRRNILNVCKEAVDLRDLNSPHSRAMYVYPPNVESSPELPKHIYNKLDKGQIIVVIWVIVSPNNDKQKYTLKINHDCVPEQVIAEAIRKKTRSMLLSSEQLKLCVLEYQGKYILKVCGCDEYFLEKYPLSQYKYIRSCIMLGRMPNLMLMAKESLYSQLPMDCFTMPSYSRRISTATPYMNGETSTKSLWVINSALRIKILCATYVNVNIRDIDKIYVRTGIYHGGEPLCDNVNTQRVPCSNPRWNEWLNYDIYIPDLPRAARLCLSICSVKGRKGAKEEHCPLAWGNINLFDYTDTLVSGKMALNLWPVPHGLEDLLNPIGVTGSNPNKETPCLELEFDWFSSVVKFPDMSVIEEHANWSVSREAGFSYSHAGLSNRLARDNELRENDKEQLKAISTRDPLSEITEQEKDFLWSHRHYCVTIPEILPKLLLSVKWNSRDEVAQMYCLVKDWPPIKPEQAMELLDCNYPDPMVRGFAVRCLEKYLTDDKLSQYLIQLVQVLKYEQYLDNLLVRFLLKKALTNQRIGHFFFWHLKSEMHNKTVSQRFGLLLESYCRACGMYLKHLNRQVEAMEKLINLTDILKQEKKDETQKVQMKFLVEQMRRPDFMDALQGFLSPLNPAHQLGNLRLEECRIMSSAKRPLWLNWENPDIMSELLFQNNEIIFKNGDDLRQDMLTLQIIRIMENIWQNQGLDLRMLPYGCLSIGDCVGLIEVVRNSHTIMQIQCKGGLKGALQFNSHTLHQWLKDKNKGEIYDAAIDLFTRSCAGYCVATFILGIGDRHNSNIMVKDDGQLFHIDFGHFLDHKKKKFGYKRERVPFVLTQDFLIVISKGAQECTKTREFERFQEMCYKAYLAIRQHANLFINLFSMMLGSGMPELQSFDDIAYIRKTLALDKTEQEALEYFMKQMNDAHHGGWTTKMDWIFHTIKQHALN

Compound	IC50 [1]	IC50 [2]	IC50 [3]	IC50 [4]
Cc1cc(N2CCOc3ccc(O[C@H]4CCN(C(=O)C5CCOCC5)C4)cc32)cnc1S(C)(=O)=O [Example B1, {(S)-3-[4-(6-Methanesulfonyl-5-methyl-pyridin-3-yl)-3,4-dihydro-2H-benzo[1,4]oxazin-6-yloxy]-pyrrolidin-1-yl}-(tetrahydro-pyran-4-yl)-methanone]	14 nM	29 nM	390 nM	154 nM
COc1ncc(N2CCOc3ccc(O[C@H]4CCN(C(=O)C5CCOCC5)C4)cc32)cc1C#N [Example C1, 2-Methoxy-5-{6-[(S)-1-(tetrahydro-pyran-4-carbonyl)-pyrrolidin-3-yloxy]-2,3-dihydro-benzo[1,4]oxazin-4-yl}-nicotinonitrile]	19 nM	68 nM	300 nM	81 nM
COc1ncc(N2CCOc3ccc(O[C@H]4CCN(C(=O)c5cn(C)cn5)C4)cc32)cc1C#N [Example D1, (S)-2-methoxy-5-(6-((1-(1-methyl-1H-imidazole-4-carbonyl)pyrrolidin-3-yl)oxy)-2H-benzo[b][1,4]oxazin-4(3H)-yl)nicotinonitrile]	5 nM	84 nM	–	147 nM
[2H]C1([2H])COc2ccc(O[C@H]3CCN(C(=O)C4CCOCC4)C3)cc2N1c1cnc(OC)c(C)c1 (single isomer, unassigned) [Q]	14 nM	37 nM	1140 nM	145 nM
COc1ncc(N2CCOc3cnc(O[C@H]4CCN(C(=O)c5cn(C)cn5)C4)cc32)cc1C [Example E1, {(S)-3-[1-(6-Methoxy-5-methyl-pyridin-3-yl)-2,3-dihydro-1H-pyrido[3,4-b][1,4]oxazin-7-yloxy]-pyrrolidin-1-yl}-(1-methyl-1H-imidazol-4-yl)-methanone]	4 nM	78 nM	98 nM	7 nM

Continued, values first:

IC50 [1]	IC50 [2]	IC50 [3]	IC50 [4]	Compound
< 3 nM	14 nM	494 nM	18 nM	COc1ncc(N2CCOc3cnc(O[C@H]4CCN(C(=O)C5CCOCC5)C4)cc32)cc1C [Example E3, {(S)-3-[1-(6-Methoxy-5-methyl-pyridin-3-yl]-2,3-dihydro-1H-pyrido[3,4-b][1,4]oxazin-7-yloxy]-pyrrolidin-1-yl}-(tetrahydro-pyran-4-yl)-methanone]
6 nM	37 nM	322 nM	43 nM	COc1ncc(N2CCOc3ccc(O[C@H]4CCN(C(=O)C5CCOCC5)C4)cc32)cc1C [Example A1, (S)-(3-((4-(6-methoxy-5-methylpyridin-3-yl)-3,4-dihydro-2H-benzo[b][1,4]oxazin-6-yl)oxy)pyrrolidin-1-yl)(tetrahydro-2H-pyran-4-yl)methanone]
< 3 nM	40 nM	71 nM	18 nM	COc1ncc(N2CCOc3cnc(O[C@H]4CCN(C(=O)C5CCS(=O)(=O)CC5)C4)cc32)cc1C(F)F [Example F7, {(S)-3-[1-(5-Difluoromethyl-6-methoxy-pyridin-3-yl)-2,3-dihydro-1H-pyrido[3,4-b][1,4]oxazin-7-yloxy]-pyrrolidin-1-yl}-(1,1-dioxo-hexahydro-1lambda*6*-thiopyran-4-yl)-methanone]
